Patent US11063221B2, “Materials for electronic devices” (Merck Patent GmbH, priority 2014, dated 2021)
≈ marks a conversion by molar mass, not a printed value.

Experiment: Solubility of host materials (Table 4, solution-processed OLEDs)
Assay type: physicochemical
Conditions: Example V8

Row | SMILES | Solubility / processability from solution (in words)
1 | c1ccc(-c2c3ccccc3c(-c3cccc4c3ccc3cc5ccccc5cc34)c3ccccc23)cc1 [VH-3] | cannot be processed from solution at all owing to the low solubility

Same assay, conditions: host material; solvent not given (emission-layer mixture is dissolved in toluene)

Row | SMILES | Solubility
2 | c1ccc(-c2cc(-c3ccccc3)cc(-c3c4ccccc4c(-c4cccc5c4ccc4cc6ccccc6cc45)c4ccccc34)c2)cc1 [VH-1] | 70 mg/mL (≈ 111 mM)
3 | CC(C)Cc1c2ccccc2cc2c1ccc1c(-c3c4ccccc4c(-c4ccccc4)c4ccccc34)cccc12 [H-2] | 45 mg/mL (≈ 83.8 mM)
4 | c1ccc(-c2c3ccccc3c(-c3cccc4c3ccc3cc5ccccc5cc34)c3ccccc23)cc1 [VH-3] | <1 mg/mL
5 | Cc1c2ccccc2cc2c1ccc1c(-c3c4ccccc4c(-c4ccccc4)c4ccccc34)cccc12 [H-1] | 40 mg/mL (≈ 80.9 mM)
6 | c1ccc2cc(-c3c4ccccc4c(-c4cccc5ccccc45)c4ccccc34)ccc2c1 [VH-4] | 44 mg/mL (≈ 102 mM)
